According to PMC9486541, “Design, synthesis and cytotoxic evaluation of novel betulonic acid-diazine derivatives as potential antitumor agents” (Frontiers in Chemistry, 2022):

What was measured:
HCT-116 cells = tested on: HCT-116 cells; design: method as in list in b5; settings: Figure 1, representative BoA derivatives; ref list in b5; cited from earlier work
SW872 = tested on: SW872; design: method as in list in b5; settings: Figure 1, representative BoA derivatives; ref list in b5; cited from earlier work
[1] = tested on: LNCaP prostate cancer cells; design: method as in Saxena et al., 2006; settings: 100 μM; ref Saxena et al., 2006; cited from earlier work
[2] = tested on: normally proliferating fibroblast cells; design: method as in Saxena et al., 2006; settings: ref Saxena et al., 2006; cited from earlier work
[3] = tested on: MCF-7 breast cancer cells; experiment: MTT cell proliferation with FXR antagonist DY268; type: cell-based, human; settings: MCF-7, BoA2C (8 μM) + DY268 (10 μM), 24, 48 and 72 h
Method: The antitumor activity was assessed by MTT assay, as previously reported ([Fang et al., 2018]). Each tested compound and positive control drugs were dissolved in DMSO and diluted with the medium to the test concentrations, and the final concentration of DMSO in the culture medium was controlled at less than 0.5% (v/v). Briefly, cells were cultured at 37°C and dispersed in replicates in 96-well plates with HepG2, Bel-7402, HeLa, MCF-7 and MDCK for 24 h. Fresh medium along with compounds (BoAA-BoAE, BoA2A-BoA2G, BoA3A-BoA3G, BoA4A-BoA4G) at different concentrations was then added to individual wells and incubated for 72 h, with BoA and DDP as the positive control. Experiments on FXR expression were separated into three groups: Control (PBS), BoA2C (8 μM), and BoA2C (8 μM) + DY268 (10 μM) ([Giordano et al., 2016]), with three repeating wells in each. […] After 72 h, the cell was incubated with MTT solution (0.5 mg/ml) for an additional 4 h at 37°C. The produced formazan crystals were solubilized with DMSO, and the optical density of solution was measured at 570 nm using a plate reader (BIORAD 550 spectrophotometer, Bio-rad Life Science Development Ltd., Beijing, China). Wells without drugs were used to be blanks. The IC50 values were defined as the concentration of compounds that produced a 50% proliferation inhibition of surviving cells and calculated using the Graph Pad Prism 5. […]

A375 cells = tested on: A375 cells; design: method as in list in b5; settings: Figure 1, representative BoA derivatives; ref list in b5; cited from earlier work
G-361 cells = tested on: G-361 cells; design: method as in list in b5; settings: Figure 1, representative BoA derivatives; ref list in b5; cited from earlier work
LNCaP cells = tested on: LNCaP cells; design: method as in list in b5; settings: Figure 1, representative BoA derivatives; ref list in b5; cited from earlier work
Hela cells = tested on: Hela cells; design: method as in list in b5; settings: Figure 1, representative BoA derivatives; ref list in b5; cited from earlier work
DLD-1 cells = tested on: DLD-1 cells; design: method as in list in b5; settings: Figure 1, representative BoA derivatives; ref list in b5; cited from earlier work
MCF-7 = experiment: MTT assay, MCF-7 cells; type: cell-based, human; settings: Homo sapiens, MCF7, 72 h incubation, read-out: Half maximal inhibitory concentration (IC50) values, MCF-7
From the text: (§1) The human hepatocellular carcinoma cell line (HepG2), human hepatocellular carcinoma cell line (Bel-7402), human cervical cancer cell line (Hela), human breast adenocarcinoma cell line (MCF-7) and Madin-Darby canine kidney cell line (MDCK) were obtained from the Chinese Academy of Medical Sciences and Peking Union Medical College. Cultures were maintained as monolayer in RPMI-1640/DMEM supplemented with 10% (v/v) fetal bovine serum (FBS) and 1% (v/v) penicillin/streptomycin (Thermo Technologies, New York, NY, United States) under a humidified atmosphere containing 5% CO2 at 37°C. The BoA derivatives and positive control drugs (BoA and DDP) under study were dissolved in DMSO (Sigma, St. Louis, MO, United States) and added at required concentrations to the cell culture. Cells incubated without the preparations served as the control.
(§2) The antitumor activity was assessed by MTT assay, as previously reported ([Fang et al., 2018]). Each tested compound and positive control drugs were dissolved in DMSO and diluted with the medium to the test concentrations, and the final concentration of DMSO in the culture medium was controlled at less than 0.5% (v/v). Briefly, cells were cultured at 37°C and dispersed in replicates in 96-well plates with HepG2, Bel-7402, HeLa, MCF-7 and MDCK for 24 h. Fresh medium along with compounds (BoAA-BoAE, BoA2A-BoA2G, BoA3A-BoA3G, BoA4A-BoA4G) at different concentrations was then added to individual wells and incubated for 72 h, with BoA and DDP as the positive control. Experiments on FXR expression were separated into three groups: Control (PBS), BoA2C (8 μM), and BoA2C (8 μM) + DY268 (10 μM) ([Giordano et al., 2016]), with three repeating wells in each. In separate wells, BoA2C and DY268 were introduced and cultured for 72 h. After 72 h, the cell was incubated with MTT solution (0.5 mg/ml) for an additional 4 h at 37°C. The produced formazan crystals were solubilized with DMSO, and the optical density of solution was measured at 570 nm using a plate reader (BIORAD 550 spectrophotometer, Bio-rad Life Science Development Ltd., Beijing, China). Wells without drugs were used to be blanks. The IC50 values were defined as the concentration of compounds that produced a 50% proliferation inhibition of surviving cells and calculated using the Graph Pad Prism 5. The inhibitory rate was calculated in the following Equation 1, where OD is the optical density: % inhibition=[1−(OD Sample group−OD Blank group)/(OD Control group−OD Blank group)]×100% (1)

Bel-7402 = experiment: MTT assay, Bel-7402 cells; type: cell-based, human; settings: Homo sapiens, Bel-7402, 72 h incubation, read-out: Half maximal inhibitory concentration (IC50) values, Bel-7402
From the text: as §1, §2

MDCK = experiment: MTT assay, MDCK normal cell line; type: cell-based, canine; settings: Canis lupus familiaris, MDCK, 72 h incubation, normal cell line, read-out: Half maximal inhibitory concentration (IC50) values, MDCK
From the text: as §1, §2

Hela = experiment: MTT assay, Hela cells; type: cell-based, human; settings: Homo sapiens, HeLa, 72 h incubation, read-out: Half maximal inhibitory concentration (IC50) values, Hela
From the text: as §1, §2

HepG2 = experiment: MTT assay, HepG2 cells; type: cell-based, human; settings: Homo sapiens, HepG2, 72 h incubation, read-out: Half maximal inhibitory concentration (IC50) values, HepG2
From the text: as §1, §2

Compound: C=C(C)C1CCC2(C(=O)O)CCC3(C)C(CCC4C5(C)CC(=Cc6ccc([N+](=O)[O-])cc6)C(O)C(C)(C)C5CCC43C)C12 (stereo not shown) [Compound 5]
- IC50 (HCT-116 cells): 1.36 µM

Compound: C=C(C)[C@@H]1CC[C@]2(C(=O)OCC(N)(CO)CO)CC[C@]3(C)[C@H](CC[C@@H]4[C@@]5(C)CC[C@H](OC(C)=O)C(C)(C)[C@@H]5CC[C@]43C)[C@@H]12 [Compound 7]
- IC50 (SW872): 1.8 µM

Compound: C=C(C)C1CC[C@]2(C(=O)NCCCCC(NC(=O)OC(C)(C)C)C(=O)O)CC[C@]3(C)[C@H](CC[C@@H]4[C@@]5(C)CCC(=O)C(C)(C)[C@@H]5CC[C@]43C)[C@@H]12 (stereo partly shown) [boc-lysinated-betulonic acid]
- inhibition of LNCaP prostate cancer cells [1]: 95.7%
- effect on normally proliferating fibroblast cells [2]: little effect on normally proliferating fibroblast cells

Compound: COc1cccc(Cn2cc(C(=O)Nc3ccc(C)c(S(=O)(=O)N4CCOCC4)c3)c(-c3ccc(C)cc3)n2)c1 [DY268]
- effect of DY268 on BoA2C antiproliferative activity [3]: reversed BoA2C inhibitory impact on the growth of MCF-7 breast cancer cells

Compound: C=C(C)[C@@H]1CC[C@]2(C(=O)Nc3cncc4ccccc34)CC[C@]3(C)C(CCC4[C@@]5(C)CC[C@H](OC(C)=O)C(C)(C)C5CC[C@]43C)C12 (stereo partly shown) [Compound 3]
- IC50 (A375 cells): 1.48 µM

Compound: C=C(C)C1CCC2(C(=O)OC3OC(COC(C)=O)C(OC(C)=O)C(OC(C)=O)C3OC(C)=O)CCC3(C)C(CCC4C5(C)CCC(O)C(C)(C)C5CCC43C)C12 (stereo not shown) [Compound 2]
- IC50 (G-361 cells): 3.4 µM

Compound: C=C(C)C1CC[C@]2(C(=O)NCCCCC(NC(=O)OC(C)(C)C)C(=O)O)CC[C@]3(C)[C@H](CC[C@@H]4[C@@]5(C)CCC(=O)C(C)(C)[C@@H]5CC[C@]43C)[C@@H]12 (stereo partly shown) [Compound 1]
- IC50 (LNCaP cells): 10 µM

Compound: C=C(C)[C@@H]1CC[C@]2(C(=O)OCCN3CCNCC3)CC[C@]3(C)C(CCC4[C@@]5(C)CC[C@H](O)C(C)(C)C5CC[C@]43C)C12 (stereo partly shown) [Compound 4]
- IC50 (Hela cells): 2.05 µM

Compound: C=C(C)C1CCC2(COC(C)=O)CCC3(C)C(CCC4C5(C)CCC(OC6OC(CO)C(O)C(O)C6O)C(C)(C)C5CCC43C)C12 (stereo not shown) [Compound 6]
- IC50 (DLD-1 cells): 4.45 µM

Compound: C=C(C)[C@@H]1CC[C@]2(C(=O)OCCCCOC(=O)c3nc(C)c(C)nc3C)CC[C@]3(C)[C@H](CC[C@@H]4[C@@]5(C)CCC(=O)C(C)(C)[C@@H]5CC[C@]43C)[C@@H]12 [BoA4E, (3,5,6-Trimethylpyrazin-2-acyloxy)-butyl-3-oxolup-20(29)-en-28-oate]
- IC50 (MCF-7): > 30 µM
- melting point: 124 to 126 °C
- IC50 (Bel-7402): > 30 µM
- IC50 (MDCK): > 30 µM
- IC50 (Hela): > 30 µM
- IC50 (HepG2): > 30 µM

Compound: C=C(C)[C@@H]1CC[C@]2(C(=O)OCc3nccnc3C)CC[C@]3(C)[C@H](CC[C@@H]4[C@@]5(C)CCC(=O)C(C)(C)[C@@H]5CC[C@]43C)[C@@H]12 [BoAB, (3-Methylpyrazin-2-yl)-methyl-3-oxolup-20(29)-en-28-oate]
- IC50 (MCF-7): 10 ± 0.26 µM
- melting point: 80 to 82 °C
- IC50 (Bel-7402): 7.73 ± 1.92 µM
- IC50 (MDCK): > 30 µM
- IC50 (Hela): 11.8 ± 0.58 µM
- IC50 (HepG2): 11.1 ± 0.27 µM

Compound: C=C(C)[C@@H]1CC[C@]2(C(=O)OCc3cnc(C)cn3)CC[C@]3(C)[C@H](CC[C@@H]4[C@@]5(C)CCC(=O)C(C)(C)[C@@H]5CC[C@]43C)[C@@H]12 [BoAC, (5-Methylpyrazin-2-yl)-methyl-3-oxolup-20(29)-en-28-oate]
- IC50 (MCF-7): 8.94 ± 1.3 µM
- melting point: 125 to 127 °C
- IC50 (Bel-7402): 8.24 ± 2.43 µM
- IC50 (MDCK): > 30 µM
- IC50 (Hela): 11.9 ± 1.05 µM
- IC50 (HepG2): 8.95 ± 4.76 µM

Compound: C=C(C)[C@@H]1CC[C@]2(C(=O)OCCCOC(=O)c3nccnc3C)CC[C@]3(C)[C@H](CC[C@@H]4[C@@]5(C)CCC(=O)C(C)(C)[C@@H]5CC[C@]43C)[C@@H]12 [BoA3B, (3-Methylpyrazin-2-acyloxy)-propyl-3-oxolup-20(29)-en-28-oate]
- IC50 (MCF-7): 27.9 ± 1.06 µM
- melting point: 54 to 55 °C
- IC50 (Bel-7402): 14.2 ± 2.1 µM
- IC50 (MDCK): > 30 µM
- IC50 (Hela): 15.7 ± 2.15 µM
- IC50 (HepG2): 13.2 ± 1.2 µM

Compound: C=C(C)[C@@H]1CC[C@]2(C(=O)OCCOC(=O)c3ccncn3)CC[C@]3(C)[C@H](CC[C@@H]4[C@@]5(C)CCC(=O)C(C)(C)[C@@H]5CC[C@]43C)[C@@H]12 [BoA2F]
- IC50 (MCF-7): 29.7 ± 0.37 µM
- melting point: 72 to 74 °C
- IC50 (Bel-7402): > 30 µM
- IC50 (MDCK): 12.5 ± 1.22 µM
- IC50 (Hela): 15.2 ± 1.07 µM
- IC50 (HepG2): > 30 µM

Compound: C=C(C)[C@@H]1CC[C@]2(C(=O)OCc3cncc(C)n3)CC[C@]3(C)[C@H](CC[C@@H]4[C@@]5(C)CCC(=O)C(C)(C)[C@@H]5CC[C@]43C)[C@@H]12 [BoAD, (6-Methylpyrazin-2-yl)-methyl-3-oxolup-20(29)-en-28-oate]
- IC50 (MCF-7): 8.24 ± 0.87 µM
- melting point: 119 to 121 °C
- IC50 (Bel-7402): 7.51 ± 1.4 µM
- IC50 (MDCK): > 30 µM
- IC50 (Hela): 10.7 ± 0.32 µM
- IC50 (HepG2): 5.17 ± 1.33 µM
